Assay results: the NIST ThermoML archive (doi:10.1021/je700029q)
Values joined by “and” are separate entries in the source; they are usually repeats but may differ in a detail not shown here. Equal values may be shown once.

What was measured:
[1] = xn = mol fraction of the nth substance listed; details: 101 kPa, Liquid
[2] = refractive index (Na D-line) (dimensionless); xn = mol fraction of the nth substance listed; details: 298.15 K, 101 kPa, Liquid
[3] = 101 kPa, Liquid
[4] = refractive index (Na D-line) (dimensionless); details: 298.15 K; 101.33 kPa; Liquid

CCOS(=O)(=O)[O-].CCn1cc[n+](C)c1 [1-ethyl-3-methylimidazolium ethyl sulfate] + CC(C)O
[1]
Details	mass density, 298.15 K [kg/m3]	mass density, 313.15 K [kg/m3]	mass density, 328.15 K [kg/m3]	speed of sound, 298.15 K [m/s]	speed of sound, 313.15 K [m/s]	speed of sound, 328.15 K [m/s]	viscosity, 298.15 K [mPa·s]	viscosity, 313.15 K [mPa·s]	viscosity, 328.15 K [mPa·s]
x2 = 0	1237.6	1227.5	1217.5	1679	1643	1605	97.58	50.01	29.18
x2 = 0.1228	1214.3	1204.4	1194.5	1644	1608	1569	69.71	37.79	22.97
x2 = 0.2066	1196.4	1186.4	1176.3	1611	1576	1537	53.67	30.34	18.93
x2 = 0.309	1170.9	1160.9	1150.7	1570	1534	1494	40.1	23.56	15.2
x2 = 0.399	1144.9	1134.7	1124.3	1529	1491	1451	29.79	18.23	12.1
x2 = 0.4977	1111.8	1101.3	1090.7	1475	1439	1399	21.14	13.41	9.184
x2 = 0.6341	1054.2	1043.5	1032.6	1399	1360	1318	12.4	8.274	5.878
x2 = 0.7223	1008.5	997.4	986.2	1342	1302	1259	8.462	5.753	4.15
x2 = 0.8551	920.2	908.6	896.6	1251	1207	1161	4.475	3.081	2.225
x2 = 0.9706	814.1	801.7	788.5	1164	1113	1063	2.499	1.658	1.147

[2]
Details	refractive index
x2 = 0	1.4794
x2 = 0.1228	1.47434
x2 = 0.2066	1.47057
x2 = 0.309	1.46502
x2 = 0.399	1.45926
x2 = 0.4977	1.45177
x2 = 0.6341	1.43881
x2 = 0.7223	1.42818
x2 = 0.8551	1.40784
x2 = 0.9706	1.38306

CO [methanol]
[3]
Details	mass density [kg/m3]	speed of sound [m/s]	viscosity [mPa·s]
298.15 K	786.4	1103	0.546
313.15 K	772.3	1055	0.446
328.15 K	757.8	1006	0.369

Details	refractive index
[4]	1.32687

CO [methanol] + CCOS(=O)(=O)[O-].CCn1cc[n+](C)c1
[1], x1 = 1
Details	mass density [kg/m3]	speed of sound [m/s]	viscosity [mPa·s]
298.15 K	786.4	1103	0.546
313.15 K	772.3	1055	0.446
328.15 K	757.8	1006	0.369

Details	refractive index
[2], x1 = 1	1.32687

CC(C)O [propan-2-ol] + CCOS(=O)(=O)[O-].CCn1cc[n+](C)c1
[1], x1 = 1
Details	mass density [kg/m3]	speed of sound [m/s]	viscosity [mPa·s]
298.15 K	780.7	1138	2.082
313.15 K	767.8	1085	1.354
328.15 K	753.9	1031	0.919

Details	refractive index
[2], x1 = 1	1.37495

CCCO [propan-1-ol]
[3]
Details	mass density [kg/m3]	speed of sound [m/s]	viscosity [mPa·s]
298.15 K	799.6	1207	2.017
313.15 K	787.4	1155	1.43
328.15 K	774.8	1105	1.041

Details	refractive index
[4]	1.3831

CCOS(=O)(=O)[O-].CCn1cc[n+](C)c1 [1-ethyl-3-methylimidazolium ethyl sulfate] + CCCO
[1]
Details	mass density, 298.15 K [kg/m3]	mass density, 313.15 K [kg/m3]	mass density, 328.15 K [kg/m3]	speed of sound, 298.15 K [m/s]	speed of sound, 313.15 K [m/s]	speed of sound, 328.15 K [m/s]	viscosity, 298.15 K [mPa·s]	viscosity, 313.15 K [mPa·s]	viscosity, 328.15 K [mPa·s]
x2 = 0	1237.6	1227.5	1217.5	1679	1642	1605	97.58	50.01	29.18
x2 = 0.1619	1208.1	1197.9	1187.6	1637	1600	1565	60.85	33.73	20.84
x2 = 0.2104	1197.9	1187.6	1177.3	1620	1584	1548	52.11	29.56	18.59
x2 = 0.336	1167.4	1157.1	1146.7	1574	1537	1501	34.41	20.72	13.61
x2 = 0.5159	1111.6	1100.8	1090.2	1492	1456	1419	18.01	11.73	8.159
x2 = 0.7298	1015.5	1004.4	993.2	1382	1340	1300	7.296	5.125	3.774
x2 = 0.8046	970	958.6	947.2	1337	1294	1252	5.491	3.918	2.918
x2 = 0.8894	907.7	895.9	884	1284	1238	1193	3.577	2.58	1.923
x2 = 0.9401	862.5	850.6	838.5	1249	1201	1154	2.776	1.997	1.482
x2 = 0.9727	829.8	817.8	805.5	1227	1178	1130	2.419	1.729	1.272

[2]
Details	refractive index
x2 = 0	1.4794
x2 = 0.1619	1.47317
x2 = 0.2104	1.47102
x2 = 0.336	1.46449
x2 = 0.5159	1.4524
x2 = 0.7298	1.43139
x2 = 0.8046	1.42139
x2 = 0.8894	1.40743
x2 = 0.9401	1.39739
x2 = 0.9727	1.39003

CC(C)O [propan-2-ol]
[3]
Details	mass density [kg/m3]	speed of sound [m/s]	viscosity [mPa·s]
298.15 K	780.7	1138	2.082
313.15 K	767.8	1085	1.354
328.15 K	753.9	1031	0.919

Details	refractive index
[4]	1.37495

CCOS(=O)(=O)[O-].CCn1cc[n+](C)c1 [1-ethyl-3-methylimidazolium ethyl sulfate]
[3]
Details	mass density [kg/m3]	speed of sound	viscosity [mPa·s]
298.15 K	1237.6	1679 m/s	97.58
313.15 K	1227.5	1641 m/s and 1642 m/s and 1643 m/s	50.01
328.15 K	1217.5	1605 m/s	29.18

Details	refractive index
[4]	1.4794

CCOS(=O)(=O)[O-].CCn1cc[n+](C)c1 [1-ethyl-3-methylimidazolium ethyl sulfate] + CO
[1]
Details	mass density, 298.15 K [kg/m3]	mass density, 313.15 K [kg/m3]	mass density, 328.15 K [kg/m3]	speed of sound, 298.15 K [m/s]	speed of sound, 313.15 K [m/s]	speed of sound, 328.15 K [m/s]	viscosity, 298.15 K [mPa·s]	viscosity, 313.15 K [mPa·s]	viscosity, 328.15 K [mPa·s]
x2 = 0	1237.6	1227.5	1217.5	1679	1641	1605	97.58	50.01	29.18
x2 = 0.1346	1224.2	1214.1	1204	1663	1627	1588	60.93	33.83	20.92
x2 = 0.2595	1209.1	1199	1188.6	1640	1603	1564	39.32	23.4	15.25
x2 = 0.3267	1199.4	1189.1	1178.8	1624	1587	1549	30.59	18.94	12.65
x2 = 0.4741	1171.9	1161.3	1150.7	1583	1546	1506	16.38	11.02	7.887
x2 = 0.5701	1146.8	1135.9	1125.1	1547	1509	1469	10.12	7.173	5.387
x2 = 0.6664	1113.9	1102.9	1091.8	1500	1461	1420	6.45	4.776	3.661
x2 = 0.7757	1059	1047.5	1035.9	1423	1382	1340	3.232	2.508	2.02
x2 = 0.8294	1021.1	1009.2	997.3	1371	1330	1287	2.351	1.86	1.501
x2 = 0.923	924.9	912.2	899.3	1251	1207	1162	1.639	0.901	0.666
x2 = 0.9626	863.7	850.4	836.9	1187	1137	1090	1.263	0.66	0.551
x2 = 0.9917	806	792.2	777.7	1123	1076	1029	1.039	0.516	0.43

[2]
Details	refractive index
x2 = 0	1.4794
x2 = 0.1346	1.47491
x2 = 0.2595	1.47006
x2 = 0.3267	1.46675
x2 = 0.4741	1.45742
x2 = 0.5701	1.44913
x2 = 0.6664	1.43808
x2 = 0.7757	1.42043
x2 = 0.8294	1.4078
x2 = 0.923	1.37377
x2 = 0.9626	1.35299
x2 = 0.9917	1.33319

CCCO [propan-1-ol] + CCOS(=O)(=O)[O-].CCn1cc[n+](C)c1
[1], x1 = 1
Details	mass density [kg/m3]	speed of sound [m/s]	viscosity [mPa·s]
298.15 K	799.6	1207	2.017
313.15 K	787.4	1155	1.43
328.15 K	774.8	1105	1.041

Details	refractive index
[2], x1 = 1	1.3831
